Data set [1] deals with human neonatal and adult blood. Kind of data set: Human whole blood assay, cytokine induction (3M-052, PCV13). In kind it is cell-based. As to conditions: 6 hours, concentration-dependent, each agent alone. The source says:
Human blood sample processing and in vitro stimulation. Peripheral blood was collected from healthy adult volunteers, while human newborn cord blood was collected immediately after Cesarean section delivery of the placenta. Births to known HIV-positive mothers were excluded. Human experimentation guidelines of the U.S. Department of Health and Human Services, The Brigham & Women's Hospital, Beth Israel Deaconess Medical Center Boston, and Boston Children's Hospital were observed, following protocols approved by the local institutional review boards. Human blood was anti-coagulated with 20 units/ml pyrogen-free sodium heparin (American Pharmaceutical Partners, Inc.; Schaumberg, Ill.). All blood products were kept at room temperature and processed within 4 hours from collection. […] Additionally, whole blood assay supernatants were analyzed by multiplex cytokine assays (Millipore; Billerica, Mass., USA). […]
TLR agonists and multi-analyte assays. […] Cytokine and chemokine expression profiles in cell culture supernatants and peripheral blood plasma were measured using customized Milliplex human and non-human primate cytokine/chemokine magnetic bead panels (Millipore), respectively. Assays were analyzed on the Luminex® 100/200™ System employing xPOTENT® software (Luminex; Austin, Tex.) and Millipore Milliplex Analyst (version 3.5.5.0).

The subject of data set [2] is influenza hemagglutinin (HA). The experiment in a line: Mouse immunization with influenza hemagglutinin (HA), HA-specific serum Ig by ELISA. The format is in vivo, Balb/c mice. The following applies: three times, Day 77.
The test system of another data set is adult human PBMCs. The experiment in a line: Adult human PBMC stimulation.
Data set [3] is described as follows: Adsorption onto alum derived from DTaP vaccine (RP-HPLC). In kind it is physicochemical. The following applies: within 1-2 hr, all circumstances tested.
In a further data set the target is T1, human TLR7 (Homo sapiens, UniProt Q9NYK1).
T1 construct: host or cells: HEK293 with NF-kB-responsive SEAP reporter
T1 sequence (Q9NYK1 27-1049): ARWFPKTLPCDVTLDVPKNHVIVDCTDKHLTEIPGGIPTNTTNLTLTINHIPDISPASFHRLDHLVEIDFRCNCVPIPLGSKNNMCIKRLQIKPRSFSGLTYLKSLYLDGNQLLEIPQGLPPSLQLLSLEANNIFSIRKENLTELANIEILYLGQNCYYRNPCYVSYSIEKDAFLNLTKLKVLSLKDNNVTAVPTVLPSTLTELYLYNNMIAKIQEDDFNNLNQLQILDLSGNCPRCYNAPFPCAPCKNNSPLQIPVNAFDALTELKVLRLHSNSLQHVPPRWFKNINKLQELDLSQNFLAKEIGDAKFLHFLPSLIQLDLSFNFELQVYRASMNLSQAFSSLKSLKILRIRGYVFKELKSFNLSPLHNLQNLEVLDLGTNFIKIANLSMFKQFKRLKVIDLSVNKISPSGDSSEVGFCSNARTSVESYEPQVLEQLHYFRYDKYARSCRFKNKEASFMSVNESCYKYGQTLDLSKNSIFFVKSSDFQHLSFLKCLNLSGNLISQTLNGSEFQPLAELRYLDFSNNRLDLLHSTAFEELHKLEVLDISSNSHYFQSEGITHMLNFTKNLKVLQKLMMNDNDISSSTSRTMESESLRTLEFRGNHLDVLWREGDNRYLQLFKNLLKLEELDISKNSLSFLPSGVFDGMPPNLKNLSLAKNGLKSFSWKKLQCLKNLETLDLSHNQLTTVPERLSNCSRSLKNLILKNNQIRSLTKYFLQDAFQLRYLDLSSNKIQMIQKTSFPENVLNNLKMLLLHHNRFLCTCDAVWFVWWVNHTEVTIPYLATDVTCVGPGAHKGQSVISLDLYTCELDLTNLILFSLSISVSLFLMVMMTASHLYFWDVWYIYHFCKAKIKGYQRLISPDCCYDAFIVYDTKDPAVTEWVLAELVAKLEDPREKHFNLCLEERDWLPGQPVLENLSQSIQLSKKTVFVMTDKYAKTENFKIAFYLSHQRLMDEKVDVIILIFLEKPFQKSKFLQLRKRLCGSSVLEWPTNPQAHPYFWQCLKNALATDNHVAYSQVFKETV
Kind of data set: HEK293 NF-kB SEAP reporter assay, human TLR7. In kind it is cell-based. As to conditions: among six IMQ and OA compounds, SEAP fold change. On the procedure:
Human embryonic kidney (HEK)293 cells expressing human TLR7 or TLR8 with an NF-κB-responsive secreted embryonic alkaline phosphatase (SEAP) reporter gene were obtained from Novus Biologicals (Littleton, Colo.) and Invivogen (San Diego, Calif.), respectively. Cells were maintained in DMEM with 10% HI-FBS and selection antibiotics per the manufacturer's instructions. Cells were plated at 5×10^5 cells/96-well and stimulated with indicated agonist(s) for 24 h. Supernatants were harvested and analyzed for NF-κB/SEAP activation using the QuantiBlue™ kit (Invivogen). Values are expressed as fold change in OD650 over vehicle-only treated samples.

Consider `CCCCCCCCCCCCCCCCCC(=O)NCCCCOn1c(CCCC)nc2c(N)nc3ccccc3c21` [3M-052, N-[4-[(4-amino-2-butyl-1H-imidazo[4,5-c]quinolin-1-yl)oxy]butyl]octadecanamide], for which, in data set [1], the “production of TNF” value is recorded as “significantly inducing production of TNF over baseline”. Besides, in data set [2] (HA 10 μg with 0.01-1 mg/kg 3M-052 SC), the “antigen-specific IgG levels (IgG1, IgG2a)” value is listed as “enhances antigen-specific IgG levels”. In addition, in data set [2] (added to Alum-adjuvanted HA 10 μg, 0.1 mg/kg 3M-052 SC), the “HA-specific IgG2a Ab production” value was “markedly enhances”.
On to `CCCCc1nc2c(N)nc3ccccc3c2n1CCO` [CRX-649], for which, in the data set with adult human PBMCs (24 h, compared to unstimulated cells, flow cytometry), the “expression of CD123, HLA-D, CD80 and CD86” value is reported as “increased expression”. In the data set on adult human PBMCs (adult PBMCs), the cytokine skewing result was “pro-inflammatory biased”. Also, in data set [3], the “adsorption to the alum/antigen” value is on record as 4-7%. Further, the “potency for hTLR7” value on human TLR7 is on record as “greatest potency”.

The values above are taken from patent US11464854B2, “Methods and compositions relating to adjuvants” (Children's Medical Center Corporation, priority 2017, dated 2022).
